Measured values taken from paper PMC4554834 (Bioorganic & medicinal chemistry, 2015).

Target: T1, human OX1 receptors (Homo sapiens, UniProt O43613)
T1 sequence (O43613 1-425): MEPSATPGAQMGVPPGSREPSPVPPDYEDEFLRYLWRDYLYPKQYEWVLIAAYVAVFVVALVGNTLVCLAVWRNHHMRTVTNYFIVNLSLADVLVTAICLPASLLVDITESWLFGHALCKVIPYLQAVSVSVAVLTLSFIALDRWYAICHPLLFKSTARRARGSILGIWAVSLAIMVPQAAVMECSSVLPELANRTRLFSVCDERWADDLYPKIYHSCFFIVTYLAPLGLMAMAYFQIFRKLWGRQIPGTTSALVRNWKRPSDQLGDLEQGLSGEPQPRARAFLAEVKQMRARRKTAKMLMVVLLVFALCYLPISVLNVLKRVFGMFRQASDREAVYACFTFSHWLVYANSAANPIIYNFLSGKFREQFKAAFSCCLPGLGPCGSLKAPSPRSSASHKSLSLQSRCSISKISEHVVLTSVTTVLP
Experiment: Calcium mobilization Ke
Assay type: cell-based
Details: for OX1 potency (in words): qualitative statement

Kb [nM]	Structure (SMILES)	other results
> 10000	COc1ccc(CC2c3ccc(NC(C)=O)cc3CCN2CC(=O)NCc2ccccc2)cc1OC (stereo not drawn) [28a, N-Benzyl-2-{1-[(3,4-dimethoxyphenyl)methyl]-6-acetamido-1,2,3,4-tetrahydroisoquinolin-2-yl}acetamide]	
1600 ± 190	COC(=O)CCCCNc1ccc2c(c1)CCN(CC(=O)NCc1ccccc1)C2Cc1ccc(OC)c(OC)c1 (stereo not drawn) [26f, Methyl 5-({2-[(benzylcarbamoyl)methyl]-1-[(3,4-dimethoxyphenyl)methyl]-1,2,3,4-tetrahydroisoquinolin-6-yl}amino)pentanoate]	
5230 ± 680	CCCCCCNC(=O)Nc1ccc2c(c1)CCN(CC(=O)NCc1ccccc1)C2Cc1ccc(OC)c(OC)c1 (stereo not drawn) [28e, N-Benzyl-2-{1-[(3,4-dimethoxyphenyl)methyl]-6-[(hexylcarbamoyl)amino]-1,2,3,4-tetrahydroisoquinolin-2-yl}acetamide]	OX1 potency (in words): no significant potency
427 ± 69	CCOC(=O)CNc1ccc2c(c1)CCN(CC(=O)NCc1ccccc1)C2Cc1ccc(OC)c(OC)c1 (stereo not drawn) [26a, Ethyl 2-({2-[(benzylcarbamoyl)methyl]-1-[(3,4-dimethoxyphenyl)methyl]-1,2,3,4-tetrahydroisoquinolin-6-yl}amino)acetate]	OX1 potency (in words): some activity
> 10000	COc1ccc(CC2c3ccc(NC(=O)c4ccccc4)cc3CCN2CC(=O)NCc2ccccc2)cc1OC (stereo not drawn) [28c, N-{2-[(Benzylcarbamoyl)methyl]-1-[(3,4-dimethoxyphenyl)methyl]-1,2,3,4-tetrahydroisoquinolin-6-yl}benzamide]	
> 10000	CCOC(=O)CCCCCCNc1ccc2c(c1)CCN(CC(=O)NCc1ccccc1)C2Cc1ccc(OC)c(OC)c1 (stereo not drawn) [26g, Ethyl 7-({2-[(benzylcarbamoyl)methyl]-1-[(3,4-dimethoxyphenyl)methyl]-1,2,3,4-tetrahydroisoquinolin-6-yl}amino)heptanoate]	
> 10000	CCOC(=O)C(C)Nc1ccc2c(c1)CCN(CC(=O)NCc1ccccc1)C2Cc1ccc(OC)c(OC)c1 (stereo not drawn) [26b, Ethyl 2-({2-[(benzylcarbamoyl)methyl]-1-[(3,4-dimethoxyphenyl)methyl]-1,2,3,4-tetrahydroisoquinolin-6-yl}amino)propanoate]	
> 10000	COc1ccc(CC2c3ccc(NCC(=O)N(C)C)cc3CCN2CC(=O)NCc2ccccc2)cc1OC (stereo not drawn) [26h, 2-({2-[(Benzylcarbamoyl)methyl]-1-[(3,4-dimethoxyphenyl)methyl]-1,2,3,4-tetrahydroisoquinolin-6-yl}amino)-N,N-dimethylacetamide]	OX1 potency (in words): large decline in potency

Second part, the compound before the results:

Structure (SMILES)	Kb [nM]	other results
COc1ccc(CC2c3cc(OC(C)C)ccc3CCN2CC(=O)NCc2ccccc2)cc1OC (stereo not drawn) [10d, N-Benzyl-2-{1-[(3,4-dimethoxyphenyl)methyl]-7-(propan-2-yloxy)-1,2,3,4-tetrahydroisoquinolin-2-yl}acetamide]	49.7 ± 11	
CCCCCCN(C)c1ccc2c(c1)CCN(CC(=O)NCc1ccccc1)C2Cc1ccc(OC)c(OC)c1 (stereo not drawn) [25u, N-Benzyl-2-{1-[(3,4-dimethoxyphenyl)methyl]-6-[hexyl(methyl)amino]-1,2,3,4-tetrahydroisoquinolin-2-yl}acetamide]	> 10000	
COc1ccc(CC2c3ccc(NCCCc4ccccc4)cc3CCN2CC(=O)NCc2ccccc2)cc1OC (stereo not drawn) [25k, N-Benzyl-2-{1-[(3,4-dimethoxyphenyl)methyl]-6-[(3-phenylpropyl)amino]-1,2,3,4-tetrahydroisoquinolin-2-yl}acetamide]	1180 ± 80	
CCCN(C)c1ccc2c(c1)CCN(CC(=O)NCc1ccccc1)C2Cc1ccc(OC)c(OC)c1 (stereo not drawn) [25c, N-Benzyl-2-{1-[(3,4-dimethoxyphenyl)methyl]-6-[methyl(propyl)amino]-1,2,3,4-tetrahydroisoquinolin-2-yl}acetamide]	619 ± 96	
CCOC(=O)CCCCCCOc1ccc2c(c1)CCN(CC(=O)NCc1ccccc1)C2Cc1ccc(OC)c(OC)c1 (stereo not drawn) [17f, Ethyl 7-({2-[(benzylcarbamoyl)methyl]-1-[(3,4-dimethoxyphenyl)methyl]-1,2,3,4-tetrahydroisoquinolin-6-yl}oxy)heptanoate]	> 10000	
COc1ccc(CC2c3ccc(OCc4ccccc4)cc3CCN2CC(=O)NCc2ccccc2)cc1OC (stereo not drawn) [17d, N-Benzyl-2-[6-(benzyloxy)-1-[(3,4-dimethoxyphenyl)methyl]-1,2,3,4-tetrahydroisoquinolin-2-yl]acetamide]	> 10000	
COc1ccc(CC2c3ccc(NCc4ccccc4)cc3CCN2CC(=O)NCc2ccccc2)cc1OC (stereo not drawn) [25h, N-Benzyl-2-[6-(benzylamino)-1-[(3,4-dimethoxyphenyl)methyl]-1,2,3,4-tetrahydroisoquinolin-2-yl]acetamide]	1100 ± 290	
CCOc1ccc2c(c1)C(Cc1ccc(OC)c(OC)c1)N(CC(=O)NCc1ccccc1)CC2 (stereo not drawn) [10b, N-Benzyl-2-{1-[(3,4-dimethoxyphenyl)methyl]-7-ethoxy-1,2,3,4-tetrahydroisoquinolin-2-yl}acetamide]	37.3 ± 7.8	
COc1ccc(CC2c3ccc(N(C)CC4CC4)cc3CCN2CC(=O)NCc2ccccc2)cc1OC (stereo not drawn) [25g, N-Benzyl-2-{6-[(cyclopropylmethyl)(methyl)amino]-1-[(3,4-dimethoxyphenyl)methyl]-1,2,3,4-tetrahydroisoquinolin-2-yl}acetamide]	1400 ± 240	
COc1ccc(CC2c3ccc(N4CCCCC4)cc3CCN2CC(=O)NCc2ccccc2)cc1OC (stereo not drawn) [25q, N-Benzyl-2-{1-[(3,4-dimethoxyphenyl)methyl]-6-(piperidin-1-yl)-1,2,3,4-tetrahydroisoquinolin-2-yl}acetamide]	> 10000	OX1 potency (in words): no detectable potency
CCCCCN(C)c1ccc2c(c1)CCN(CC(=O)NCc1ccccc1)C2Cc1ccc(OC)c(OC)c1 (stereo not drawn) [25s, N-Benzyl-2-{1-[(3,4-dimethoxyphenyl)methyl]-6-[methyl(pentyl)amino]-1,2,3,4-tetrahydroisoquinolin-2-yl}acetamide]	> 10000	
COc1ccc(CC2c3ccc(NCc4cccnc4)cc3CCN2CC(=O)NCc2ccccc2)cc1OC (stereo not drawn) [25n, N-Benzyl-2-{1-[(3,4-dimethoxyphenyl)methyl]-6-[(pyridin-3-ylmethyl)amino]-1,2,3,4-tetrahydroisoquinolin-2-yl}acetamide]	1270 ± 110	
COc1ccc(CC2c3ccc(OCC(F)(F)F)cc3CCN2CC(=O)NCc2ccccc2)cc1OC (stereo not drawn) [17b, N-Benzyl-2-{1-[(3,4-dimethoxyphenyl)methyl]-6-(2,2,2-trifluoroethoxy)-1,2,3,4-tetrahydroisoquinolin-2-yl}acetamide]	> 10000	
CCCN(CCC)c1ccc2c(c1)CCN(CC(=O)NCc1ccccc1)C2Cc1ccc(OC)c(OC)c1 (stereo not drawn) [25d, N-Benzyl-2-{1-[(3,4-dimethoxyphenyl)methyl]-6-(dipropylamino)-1,2,3,4-tetrahydroisoquinolin-2-yl}acetamide]	2350 ± 490	
COc1ccc(CC2c3ccc(NCCCCOc4ccccc4)cc3CCN2CC(=O)NCc2ccccc2)cc1OC (stereo not drawn) [25l, N-Benzyl-2-{1-[(3,4-dimethoxyphenyl)methyl]-6-[(4-phenoxybutyl)amino]-1,2,3,4-tetrahydroisoquinolin-2-yl}acetamide]	2080 ± 20	
COc1ccc(CC2c3ccc(N4CCCC4)cc3CCN2CC(=O)NCc2ccccc2)cc1OC (stereo not drawn) [25p, N-Benzyl-2-{1-[(3,4-dimethoxyphenyl)methyl]-6-(pyrrolidin-1-yl)-1,2,3,4-tetrahydroisoquinolin-2-yl}acetamide]	2480 ± 6	OX1 potency (in words): some potency
CCCCCNc1ccc2c(c1)CCN(CC(=O)NCc1ccccc1)C2Cc1ccc(OC)c(OC)c1 (stereo not drawn) [25r, N-Benzyl-2-{1-[(3,4-dimethoxyphenyl)methyl]-6-(pentylamino)-1,2,3,4-tetrahydroisoquinolin-2-yl}acetamide]	> 10000	
COc1ccc(CC2c3ccc(OS(=O)(=O)c4ccccc4)cc3CCN2CC(=O)NCc2ccccc2)cc1OC (stereo not drawn) [18b, 2-[(Benzylcarbamoyl)methyl]-1-[(3,4-dimethoxyphenyl)methyl]-1,2,3,4-tetrahydroisoquinolin-6-yl benzenesulfonate]	> 10000	
CCOC(=O)CCCOc1ccc2c(c1)CCN(CC(=O)NCc1ccccc1)C2Cc1ccc(OC)c(OC)c1 (stereo not drawn) [17e, Ethyl 4-({2-[(benzylcarbamoyl)methyl]-1-[(3,4-dimethoxyphenyl)methyl]-1,2,3,4-tetrahydroisoquinolin-6-yl}oxy)butanoate]	1000 ± 190	mode of antagonism at OX1 (15 minute pre-incubation): insurmountable antagonism; mode of antagonism at OX1 (pre-incubation increased to 45 min and 60 min): competitive antagonists; mode of antagonism at OX1 (simultaneous addition of antagonist and Orexin A): competitive antagonists
COc1ccc(CC2c3ccc(NCc4ccncc4)cc3CCN2CC(=O)NCc2ccccc2)cc1OC (stereo not drawn) [25m, N-Benzyl-2-{1-[(3,4-dimethoxyphenyl)methyl]-6-[(pyridin-4-ylmethyl)amino]-1,2,3,4-tetrahydroisoquinolin-2-yl}acetamide]	> 10000	
COc1ccc(CC2c3ccc(NCC4CC4)cc3CCN2CC(=O)NCc2ccccc2)cc1OC (stereo not drawn) [25f, N-Benzyl-2-{6-[(cyclopropylmethyl)amino]-1-[(3,4-dimethoxyphenyl)methyl]-1,2,3,4-tetrahydroisoquinolin-2-yl}acetamide]	> 10000	
COc1ccc(CC2c3ccc(OC(C)C)cc3CCN2CC(=O)NCc2ccccc2)cc1OC (stereo not drawn) [17c, N-Benzyl-2-{1-[(3,4-dimethoxyphenyl)methyl]-6-(propan-2-yloxy)-1,2,3,4-tetrahydroisoquinolin-2-yl}acetamide]	> 10000	
CCCNc1ccc2c(c1)CCN(CC(=O)NCc1ccccc1)C2Cc1ccc(OC)c(OC)c1 (stereo not drawn) [25b, N-Benzyl-2-{1-[(3,4-dimethoxyphenyl)methyl]-6-(propylamino)-1,2,3,4-tetrahydroisoquinolin-2-yl}acetamide]	> 10000	
